Reference: paper PMC6618047 (Clinical Pharmacology in Drug Development, 2018)
Read-outs that look alike come from different tables or passages of the source.

Assays:
[1] = metformin 850 mg alone; cited from earlier work
[2] = for Fed:Fasted GMR (90% CI) AUCinf / Fed:Fasted GMR (90% CI) Cmax: adjusted geometric mean ratio fed:fasted; for AUC(0-inf): AUCinf; for AUC(0-t): AUClast
[3] = sitagliptin monotherapy, cited from earlier work
[4] = for AUC(0-inf) / AUC(0-t) / Tmax / half-life / Cmax: plasma, single oral dose, healthy subjects; for AUC(0-inf): AUCinf; for AUC(0-inf) / AUC(0-t) / Tmax / half-life / Fed:Fasted GMR (90% CI) AUCinf / Fed:Fasted GMR (90% CI) Cmax / Cmax: ertugliflozin 15-mg/sitagliptin 100-mg FDC tablet; for AUC(0-t): AUClast; for Tmax: median (range); for half-life: t1/2, arithmetic mean ± SD; for Fed:Fasted GMR (90% CI) AUCinf / Fed:Fasted GMR (90% CI) Cmax: adjusted geometric mean ratio fed:fasted
[5] = Summary across the 3 food-effect studies; format: in vivo, human
[6] = Food-effect pharmacokinetic study of ertugliflozin 15-mg tablet; conditions: for AUC(0-t): AUClast
[7] = cited from earlier work
[8] = early phase 1 and 2 studies, no reference given; cited from earlier work
[9] = high solubility and high permeability; no reference given; cited from earlier work
[10] = both, human, plasma, po, arithmetic mean ± SD, ertugliflozin 7.5-mg/metformin 1000-mg FDC tablet, single oral dose, healthy subjects, fed (high-fat breakfast)
[11] = both, human, plasma, po, geometric mean (geometric %CV), ertugliflozin 7.5-mg/metformin 1000-mg FDC tablet, single oral dose, healthy subjects, fasted
[12] = both, human, plasma, po, geometric mean (geometric %CV), ertugliflozin 7.5-mg/metformin 1000-mg FDC tablet, single oral dose, healthy subjects, fed (high-fat breakfast)
[13] = ertugliflozin 7.5-mg/metformin 1000-mg FDC tablet
[14] = both, human, po, geometric mean (geometric %CV), fed (high-fat breakfast)
[15] = both, human, po, geometric mean (geometric %CV), fasted
[16] = both, human, po, fed (high-fat breakfast)
[17] = ertugliflozin 15-mg tablet, adjusted geometric mean ratio fed:fasted

SMILES: CN(C)C(=N)N=C(N)N [Metformin]
- Increase in Tmax, fed versus fasted [1]: approximately 35 minute
- Lower AUC, fed versus fasted [1]: 25%
- Lower mean Cmax, fed versus fasted [1]: 40%
- Delay of Tmax, fed versus fasted ([2]; administered as ertugliflozin/metformin FDC tablet): 1.7 h
- Tmax ([2]; both, human, plasma, po): 2.3 h
- Cmax [2, 10]: 1.52 ± 0.417 µg/mL
- Cmax [2, 11]: 2.04 µg/mL
- Cmax [2, 12]: 1.46 µg/mL
- Fed:Fasted GMR (90% CI) AUCinf [2, 13]: 92.8 (85.1–101.3) %
- Fed:Fasted GMR (90% CI) Cmax [2, 13]: 70.7 (63.6–78.5) %
- Tmax, median (range) ([2]; ertugliflozin 7.5-mg/metformin 1000-mg FDC tablet, single oral dose, healthy subjects, plasma, fed (high-fat breakfast)): 4.0 (0.5–8.0) h

SMILES: N[C@@H](CC(=O)N1CCn2c(nnc2C(F)(F)F)C1)Cc1cc(F)c(F)cc1F [Sitagliptin]
- fed:fasted GMR for Cmax ([3]; 90% CI 86%–103%): 94%
- fed:fasted GMR for AUCinf ([3]; 90% CI 97%–111%): 103%
- AUC(0-inf) [4, 14]: 7.1 µM·h
- AUC(0-t) [4, 15]: 7.3 µM·h
- Tmax [4, 16]: 1.8 h
- half-life [4, 16]: 12.1 ± 1.6 h
- Fed:Fasted GMR (90% CI) AUCinf [4]: 96.6 (94.0–99.4) %
- Fed:Fasted GMR (90% CI) Cmax [4]: 96.1 (82.4–112.1) %
- Cmax ([4]; read-out: Cmax, geometric mean (geometric %CV), fed (high-fat breakfast), 1.00 ng/mL = 2.46 nM): 0.721 µM

SMILES: CCOc1ccc(Cc2cc([C@]34OC[C@](CO)(O3)[C@@H](O)[C@H](O)[C@H]4O)ccc2Cl)cc1 [Ertugliflozin]
- Delay of median Tmax, fed compared with fasted ([5]; in all 3 studies): 1 h
- Reduction of Cmax, fed compared with fasted ([5]; range across the 3 studies): 29%–41%
- Decrease of Cmax in the fed state compared with the fasted state ([6]; administered as monotherapy (15-mg tablet), based on adjusted GMR): 29%
- half-life ([6]; both, human, plasma, po, 15 mg): 11.5 ± 2.6 h
- AUC(0-inf) ([6]; both, human, plasma, po, 15 mg, AUCinf, geometric mean (geometric %CV), ertugliflozin 15-mg tablet, single oral dose, healthy subjects, fasted): 1.33 µg·h/mL
- AUC(0-t) ([6]; both, human, plasma, po, 15 mg, geometric mean (geometric %CV), ertugliflozin 15-mg tablet, single oral dose, healthy subjects, fasted): 1.31 µg·h/mL
- AUC(0-t) ([6]; both, human, plasma, po, 15 mg, geometric mean (geometric %CV), ertugliflozin 15-mg tablet, single oral dose, healthy subjects, fed (high-fat breakfast)): 1.22 µg·h/mL
- Cmax ([6]; both, human, plasma, po, 15 mg, Cmax, geometric mean (geometric %CV), ertugliflozin 15-mg tablet, single oral dose, healthy subjects, fasted): 0.271 µg/mL
- Fed:Fasted GMR (90% CI) AUCinf [6, 17]: 91.7 (88.0–95.4) %
- Fed:Fasted GMR (90% CI) Cmax [6, 17]: 70.7 (61.7–80.9) %
- Dose proportionality of exposure ([7]; dose range of 0.5 to 300 mg): dose proportional
- median Tmax ([7]; phase 1 studies, oral administration, fasted conditions): 0.5 to 1.5 h
- terminal elimination half-life (t1/2) ([7]; phase 1 studies): 11 to 17 h
- Maximum tolerated dose [8]: has not been identified
- Decrease of Cmax in the fed state compared with the fasted state ([4]; administered as ertugliflozin/sitagliptin FDC, based on adjusted GMR): 30%
- AUC(0-inf) [4, 15]: 1.17 µg·h/mL
- AUC(0-inf) [4, 14]: 1.11 µg·h/mL
- AUC(0-t) [4, 15]: 1.15 µg·h/mL
- AUC(0-t) [4, 14]: 1.09 µg·h/mL
- Cmax ([4]; both, human, po, Cmax, geometric mean (geometric %CV), fasted): 0.223 µg/mL
- Cmax ([4]; both, human, po, Cmax, geometric mean (geometric %CV), fed (high-fat breakfast)): 0.157 µg/mL
- Tmax [4, 16]: 2 h
- half-life [4, 16]: 11.6 ± 2.3 h
- Fed:Fasted GMR (90% CI) AUCinf [4]: 94.6 (91.6–97.8) %
- Fed:Fasted GMR (90% CI) Cmax [4]: 70.5 (63.3–78.4) %
- Biopharmaceutical Classification System (BCS) class [9]: class I
- Decrease of Cmax in the fed state compared with the fasted state ([2]; administered as ertugliflozin/metformin FDC, based on adjusted GMR): 41%
- AUC(0-inf) [2, 10]: 0.621 ± 0.168 µg·h/mL
- AUC(0-inf) [2, 11]: 0.655 µg·h/mL
- AUC(0-inf) [2, 12]: 0.602 µg·h/mL
- AUC(0-t) [2, 10]: 0.606 ± 0.166 µg·h/mL
- AUC(0-t) [2, 11]: 0.64 µg·h/mL
- AUC(0-t) [2, 12]: 0.587 µg·h/mL
- Cmax [2, 10]: 0.0823 ± 0.0407 µg/mL
- Cmax [2, 11]: 0.127 µg/mL
- Cmax [2, 12]: 0.0753 µg/mL
- half-life ([2]; both, human, plasma, po, t1/2, arithmetic mean ± SD, ertugliflozin 7.5-mg/metformin 1000-mg FDC tablet, single oral dose, healthy subjects, fed (high-fat breakfast)): 11.2 ± 4.5 h
- Fed:Fasted GMR (90% CI) AUCinf [2, 13]: 93.8 (90.1–97.7) %
- Fed:Fasted GMR (90% CI) Cmax [2, 13]: 59.4 (51.1–69.1) %
